Test [1] deals with T1, Dipeptidyl peptidase 4 (Homo sapiens, UniProt P27487).
Test [2] has as its target Dipeptidyl peptidase II and dipeptidyl peptidase IV (DPP2 and DPP4) (Homo sapiens) (UniProt P27487+Q9UHL4). The experiment in a line: Selectivity index against Dipeptidyl Peptidase IV and Dipeptidyl Peptidase II inhibitory activities. It counts as protein assay.
In test [3] the target is T1, Dipeptidyl peptidase 4. This is another data set of the same source.
For test [4], the target named is T2, Dipeptidyl peptidase 2 (Homo sapiens, UniProt Q9UHL4).
For test [5], the target named is T2, Dipeptidyl peptidase 2. The experiment in a line: Inhibitory activity against Dipeptidyl Peptidase II.

T1 sequence (P27487 whole entry): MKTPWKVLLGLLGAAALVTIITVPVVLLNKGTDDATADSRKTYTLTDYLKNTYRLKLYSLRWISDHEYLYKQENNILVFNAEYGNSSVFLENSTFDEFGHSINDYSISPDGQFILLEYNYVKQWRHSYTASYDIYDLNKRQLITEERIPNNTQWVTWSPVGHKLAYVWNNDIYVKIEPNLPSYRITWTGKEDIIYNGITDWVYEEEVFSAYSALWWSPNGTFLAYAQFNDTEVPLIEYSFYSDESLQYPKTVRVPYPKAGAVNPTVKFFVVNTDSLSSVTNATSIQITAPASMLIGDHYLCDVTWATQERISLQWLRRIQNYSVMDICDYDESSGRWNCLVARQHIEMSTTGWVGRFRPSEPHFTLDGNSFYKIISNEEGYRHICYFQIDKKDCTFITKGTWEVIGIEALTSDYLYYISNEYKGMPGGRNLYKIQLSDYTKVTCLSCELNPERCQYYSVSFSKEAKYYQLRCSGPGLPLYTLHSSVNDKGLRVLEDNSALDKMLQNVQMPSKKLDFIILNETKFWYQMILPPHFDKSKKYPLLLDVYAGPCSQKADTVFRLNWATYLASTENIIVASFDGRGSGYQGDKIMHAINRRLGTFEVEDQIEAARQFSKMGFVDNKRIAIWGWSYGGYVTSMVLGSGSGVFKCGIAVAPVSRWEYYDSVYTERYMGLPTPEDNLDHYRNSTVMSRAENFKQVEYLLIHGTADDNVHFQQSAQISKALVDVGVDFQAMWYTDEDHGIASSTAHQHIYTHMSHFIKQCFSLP

Take `NC(Cc1c[nH]cn1)C(=O)N1CCCCC1` (configuration not stated): in test [1], the midpoint of inhibition, the IC50, lay at 213 µM.

In test [1], `S=C(C1CCCN1)N1CCCC1` (configuration not stated) had an IC50 above 500 µM.

In the case of `NCC(=O)N1CCCC1`, the IC50 in test [1] is above 1000 µM.

`NCCCCC(N)C(=O)N1CCCCC1` (configuration not stated) gave an SI in test [2] of 154. Moreover, the IC50 in test [1] turned out to be 247 µM.

As for `N[C@@H](CC1CCCCC1)C(=O)N1CCCCC1`, half-maximal inhibition in test [1] (IC50) required 217 µM.

Consider `NC(=O)CC(N)C(=O)N1CCCC1` (configuration not stated), for which the IC50 in test [1] was 188 µM.

Regarding `CCC(C)C(N)C(=O)N1CCCCC1` (configuration not stated), half-maximal inhibition in test [1] (IC50) was put at 67 µM.

In the case of `C[C@H](N)C(=S)N1CCSC1`, the Ki was 7.88 µM in test [3] and 0.277 µM in test [4].

`N[C@@H](CC(=O)O)C(=O)N1CCCC1` gave an IC50 in test [1] of 122 µM.

Take `NC(Cc1ccccc1)C(=O)N1CCCC1` (configuration not stated): in test [1], the IC50 was found to be 21 µM.

Turning to `NC(Cc1c[nH]cn1)C(=O)N1CCCC1` (configuration not stated), in test [1], inhibition was half-maximal at 23.2 µM (IC50).

The compound `NC(CO)C(=O)N1CCCC1` (configuration not stated) came in with an IC50 in test [1] of 190 µM.

Take `NCCCC(N)C(=O)N1CCCCC1` (configuration not stated): the SI in test [2] is above 1110. The IC50 in test [1] is above 500 µM.

Take `C[C@H](N)C(=S)N1CCCC1`: the Ki in test [3] stood at 47.6 µM; in test [4], 1.43 µM.

Regarding `C[C@H](N)C(=O)N1CCC[C@H]1C#N`, half-maximal inhibition in test [5] (IC50) was put at 110 µM.

In test [2], `NCC[C@H](N)C(=O)N1CCCCC1` gave an SI above 7590. The same compound came in with an IC50 in test [1] above 1000 µM.

Turning to `NC(Cc1ccc(O)cc1)C(=O)N1CCCC1` (configuration not stated), in test [1], the IC50 amounted to 14 µM.

In test [1], `NC[C@H](N)C(=O)N1CCCCC1` yielded an IC50 above 1000 µM.

In test [2], `NCCCCC(NC(=O)OCc1ccccc1)C(=O)N1CCCCC1` (configuration not stated) displayed an SI of 64. In test [1], this compound gave an IC50 of 135 µM.

As to `NCCCCC(N)C(=O)N1CCCC1` (configuration not stated), in test [1], the IC50 was 39 µM.

In test [1], `C[C@H](N)C(=O)N1CCCC1` gave an IC50 of 41 µM.

Source of the values: ChEMBL document CHEMBL1135386, “Development of potent and selective dipeptidyl peptidase II inhibitors” (Bioorg Med Chem Lett, 2002).
